Where “and” joins values, the source holds several entries; their conditions need not be identical. Equal entries are not always repeated.
Assays:
Format in all cases: cell-based, Escherichia coli
E. coli ATCC 12435 = experiment: Log kill / surviving titer in aqueous bacterial suspension, plating on TSA; conditions: for cfu per ml: no lactic acid (0.00 control 3.41E+07)
Procedure: The “reaction” (i.e. interaction of antimicrobial agent and the target organism) was initiated by the addition of bacteria to the antimicrobial solution. The reaction was allowed to proceed for the respective time periods listed in Table I (i.e., at least 15 seconds each) and was terminated at the end of that time by adding quench buffer comprising 3.2 M potassium phosphate buffer, pH 7.2. The sample then was evaluated using serial 10-fold dilutions into sterile phosphate buffer as needed to determine, on Tryptic Soy agar (“TSA”), the titer of surviving bacteria. TSA is a medium that allows the growth of most bacteria.
The reduction in the bacterial count is expressed as the “log kill” which is defined as log10 [initial cfu/ml]−log10 [remaining cfu/ml]; where “cfu” refers to “colony forming unit.” All log kills reported herein are positive “base 10.”). Inasmuch as the standard assay mixture contained only ca. 25×10^6 cfu initially (equivalent to 7.398 log) the theoretical maximum kill that can be measured with this assay system is ca. 7.4 log and the practical measuring limit is ca. 6 log. Therefore, high levels of log reduction were monitored by plating reaction mixtures directly (without dilution) onto agar medium. The results are reported in Table I and illustrated in graph format in FIG. 1. […] The tests were replicated with E. coli ATCC 43888, a pathogenic strain of E. coli O157:H7. […]
After incubation for 15 seconds at ambient temperature the reaction was quenched by addition of phosphate buffer and the titer of surviving bacteria was determined by plating on TSA as described in the previous examples. […] The amphoteric and zwitterionic surfactants, which carry a net positive charge under the conditions of the reaction mixture, caused enhancement of the log kill by lactic acid. All anionic surfactants tested caused substantial enhancement of the log kill by lactic acid.

E. coli SAC-2 = experiment: as above; conditions: for Log Kill […] Lactic Acid: 75 degrees F.; for Log Kill: sulfate; for cfu per ml: 75 deg. F. (0.00 control 4.18E+07)
Procedure: In each instance a target sample was employed using approximately 50 micro liters of an SAC-2 culture. E. coli “SAC-2,” was a Gram-negative strain isolated from municipal sewage. The tests were performed at room temperature, i.e., 75 deg. F. […] The results of each test sample were evaluated using a series of 10-fold dilutions as needed to determine, on a standard plating agar (TSA), the titer of bacteria that survived the antimicrobial treatment.
The same procedure was employed as in Example 2, but the only agent added to the target solution was Niaproof 08. No lactic acid was employed.
The mixture was then diluted and plated as previously described.
Increasing amounts of reagent were added to a series of test tubes. […] The bacterial titer of each mixture was determined by preparation and plating of serial dilutions on TSA.
[…] […] The amphoteric and zwitterionic surfactants, which carry a net positive charge under the conditions of the reaction mixture, caused enhancement of the log kill by lactic acid. All anionic surfactants tested caused substantial enhancement of the log kill by lactic acid.

[1] = test system: E. coli ATCC 43888 (O157:H7); experiment: Log kill in aqueous bacterial suspension, plating on TSA; conditions: 73 deg. F.
E. coli ATCC 43888 = experiment: Reaction mixture streak plate, visual observation; conditions: room temperature
Procedure: The tests were performed at room temperature.

[2] = Niaproof 08 0.02 wt./wt. % in 2.5 wt. % lactic acid
[3] = Niaproof 08 0.04 wt./wt. % in 2.5 wt. % lactic acid
[4] = Niaproof 08 0.06 wt./wt. % in 2.5 wt. % lactic acid
[5] = Niaproof 08 0.10 wt./wt. % in 2.5 wt. % lactic acid

CCCCC(CC)COS(=O)(=O)[O-].[Na+] (centres unmarked) [Niaproof 08, sodium 2-ethylhexyl sulfate]
Log Kill (Lactic Acid + Surfactant) (E. coli ATCC 12435; 0.1% Niaproof 08 in 2.5% lactic acid, 15 seconds, 83 degrees F.): 6.54 log
Enhancement Factor (E. coli ATCC 12435; [2]): 1.52
Log Kill (E. coli ATCC 12435; [2]): 3.469 log
Enhancement Factor (E. coli ATCC 12435; [3]): 1.43
Log Kill (E. coli ATCC 12435; [3]): 3.259 log
Enhancement Factor (E. coli ATCC 12435; [4]): 2.79
Log Kill (E. coli ATCC 12435; [4]): 6.367 log
Enhancement Factor (E. coli ATCC 12435; [5]): 2.86
Log Kill (E. coli ATCC 12435; [5]): 6.539 log
cfu per ml (E. coli ATCC 12435; Niaproof 08 alone 0.02 % wt./wt.): 3.41E+07 cfu per ml
cfu per ml (E. coli ATCC 12435; Niaproof 08 alone 0.06 % wt./wt.): 3.43E+07 cfu per ml
cfu per ml (E. coli ATCC 12435; Niaproof 08 alone 0.14 % wt./wt.): 3.56E+07 cfu per ml
cfu per ml (E. coli ATCC 12435; Niaproof 08 alone 0.20 % wt./wt.): 3.04E+07 cfu per ml
Log Kill […] Lactic Acid (E. coli SAC-2; Niaproof 08 0.02 % wt./wt. in […] lactic acid, 15 seconds): 0.575 log
Enhancement Factor (log10 kill with lactic acid and surfactant divided by log10 kill with lactic acid only) (E. coli SAC-2; [2]): 2.37
Log Kill (E. coli SAC-2; Niaproof 08 0.02 wt./wt. % in 2.5 wt. % lactic acid, 15 seconds, room temperature): 1.08 log and 1.080 log
Log Kill […] Lactic Acid (E. coli SAC-2; Niaproof 08 0.04 % wt./wt. in […] lactic acid, 15 seconds): 1.060 log
Enhancement Factor (log10 kill with lactic acid and surfactant divided by log10 kill with lactic acid only) (E. coli SAC-2; [3]): 3.82
Log Kill (E. coli SAC-2; Niaproof 08 0.04 wt./wt. % in 2.5 wt. % lactic acid, 15 seconds, room temperature): 1.74 log and 1.740 log
Log Kill […] Lactic Acid (E. coli SAC-2; Niaproof 08 0.06 % wt./wt. in […] lactic acid, 15 seconds): 1.011 log
Log Kill […] Lactic Acid (E. coli SAC-2; Niaproof 08 0.08 % wt./wt. in […] lactic acid, 15 seconds): 2.110 log
Enhancement Factor (log10 kill with lactic acid and surfactant divided by log10 kill with lactic acid only) (E. coli SAC-2; Niaproof 08 0.08 wt./wt. % in 2.5 wt. % lactic acid): 10.5
Log Kill (E. coli SAC-2; Niaproof 08 0.08 wt./wt. % in 2.5 wt. % lactic acid, 15 seconds, room temperature): 4.8 log and 4.800 log
Log Kill […] Lactic Acid (E. coli SAC-2; Niaproof 08 0.10 % wt./wt. in […] lactic acid, 15 seconds): 2.770 log
Log Kill […] Lactic Acid (E. coli SAC-2; Niaproof 08 0.12 % wt./wt. in […] lactic acid, 15 seconds): 2.820 log
Enhancement Factor (log10 kill with lactic acid and surfactant divided by log10 kill with lactic acid only) (E. coli SAC-2; Niaproof 08 0.12 wt./wt. % in 2.5 wt. % lactic acid): 13.4
Log Kill (E. coli SAC-2; Niaproof 08 0.12 wt./wt. % in 2.5 wt. % lactic acid, 15 seconds, room temperature): 6.1 log and 6.100 log
Enhancement Factor (log10 kill with lactic acid and surfactant divided by log10 kill with lactic acid only) (E. coli SAC-2; Niaproof 08 0.16 wt./wt. % in 2.5 wt. % lactic acid): 13.4
Log Kill (E. coli SAC-2; Niaproof 08 0.16 wt./wt. % in 2.5 wt. % lactic acid, 15 seconds, room temperature): 6.1 log and 6.100 log
Log Kill […] Lactic Acid (E. coli SAC-2; Niaproof 08 0.20 % wt./wt. in […] lactic acid, 15 seconds): 5.980 log
Enhancement Factor (log10 kill with lactic acid and surfactant divided by log10 kill with lactic acid only) (E. coli SAC-2; Niaproof 08 0.20 wt./wt. % in 2.5 wt. % lactic acid): 13.4
Log Kill (E. coli SAC-2; Niaproof 08 0.20 wt./wt. % in 2.5 wt. % lactic acid, 15 seconds, room temperature): ~6 log and 6.1 log and 6.100 log
Log Kill […] Lactic Acid (E. coli SAC-2; Niaproof 08 […] wt./wt. in […] lactic acid, 15 seconds): 5.980 log
elimination of detectable E. coli (E. coli SAC-2; Niaproof 08 above about 0.2 wt./wt. % in 2.5 wt. % lactic acid, 15 seconds, room temperature): complete elimination of detectable E. coli
cfu per ml (E. coli SAC-2; Niaproof 08 alone 0.02 % wt./wt., no lactic acid, 15 seconds): 4.05E+07 cfu per ml
cfu per ml (E. coli SAC-2; Niaproof 08 alone 0.06 % wt./wt., no lactic acid, 15 seconds): 3.63E+07 cfu per ml
cfu per ml (E. coli SAC-2; Niaproof 08 alone 0.14 % wt./wt., no lactic acid, 15 seconds): 4.25E+07 cfu per ml
cfu per ml (E. coli SAC-2; Niaproof 08 alone 0.20 % wt./wt., no lactic acid, 15 seconds): 4.15E+07 cfu per ml
antimicrobial effect of Niaproof 08 by itself (E. coli SAC-2; no lactic acid, up to 0.20 % wt./wt., 15 seconds): no antimicrobial effect
Log Kill (Lactic Acid + Surfactant) (E. coli SAC-2; surfactant 0.2% in 2.5% lactic acid, 15 seconds, 74 to 80 degrees F.): 4.08 log
+Niaproof 08 (Log Kill) ([1]; 2.5% lactic acid + Niaproof 08, pH 2.19, 20 secs.): 5.75 log
+Niaproof 08 (Log Kill) ([1]; 2.5% lactic acid + Niaproof 08, pH 2.42, 20 secs.): 3.17 log
+Niaproof 08 (Log Kill) ([1]; 2.5% lactic acid + Niaproof 08, pH 2.59, 20 secs.): 3.81 log
+Niaproof 08 (Log Kill) ([1]; 2.5% lactic acid + Niaproof 08, pH 2.74, 20 secs.): 4.94 log
+Niaproof 08 (Log Kill) ([1]; 2.5% lactic acid + Niaproof 08, pH 2.86, 20 secs.): 5.01 log
+Niaproof 08 (Log Kill) ([1]; 2.5% lactic acid + Niaproof 08, pH 3.24, 20 secs.): 0 log
+Niaproof 08 (Log Kill) ([1]; 2.5% lactic acid + Niaproof 08, pH 3.67, 20 secs.): 0 log
Description/Observation (E. coli ATCC 43888; Niaproof 08 0.02 % wt./wt. in 2.5 wt. % lactic acid): Extensive bacterial growth.
Description/Observation (E. coli ATCC 43888; Niaproof 08 0.04 % wt./wt. in 2.5 wt. % lactic acid): No bacterial growth.
Description/Observation (E. coli ATCC 43888; Niaproof 08 0.06 % wt./wt. in 2.5 wt. % lactic acid): No bacterial growth.
Description/Observation (E. coli ATCC 43888; Niaproof 08 0.08 % wt./wt. in 2.5 wt. % lactic acid): No bacterial growth.
Description/Observation (E. coli ATCC 43888; Niaproof 08 0.10 % wt./wt. in 2.5 wt. % lactic acid): No bacterial growth.
concentration of surfactant at which all bacteria added were killed (E. coli ATCC 43888; in 2.5 wt. % lactic acid): ≥ 0.04%

Source: patent US20140272041A1, “METHODS OF REDUCING PATHOGENS DURING PROCESSING OR POST-PROCESSING OF BEEF, POULTRY AND OTHER MEAT PRODUCTS” (BIRKO Corporation, priority 2009, published 2014)
